{
  "source": "patent US10369131B2",
  "about": "“Ultrapure tetrahydrocannabinol-11-oic acids” (Corbus Pharmaceuticals, Inc., priority 2013, dated 2019)",
  "key": {"[1]": {"test_system": "CD-1 mice, arachidonic acid induced paw edema", "test": "Arachidonic acid induced paw edema model", "assay_type": "in vivo, mouse", "conditions": "oral 5, 50 and 500 ug/kg, 90 min before arachidonic acid, paw volume 45 min after injection", "method": "CD-1 Mice (Female) were randomly allocated to experimental groups and allowed to acclimatise for one week. Prior to test compound administration, baseline right hind paw volume was measured under gas (isoflurane) anaesthesia using a water displacement device (plethysmometer, Stoelting). On Day 0, ultrapure AJA suspended in 2% MC or vehicle was administered at 0, 5, 50 and 500 ug/kg by oral gavage. Ninety minutes after treatment administration, the animals were given 10 microliters of a 100 mg/ml arachidonic acid solution in 5% ethanol by subcutaneous injection into the plantar aspect of the right hind paw. A control group of animals (Group 1) was administered with an equivalent volume of a 5% ethanol solution. The left hind paws were not injected. Intra-plantar injections were performed under gas anaesthesia. 45 minutes after the intra-plantar injections right hind paw volume was measured under gas anaesthesia using a plethysmometer."}, "HL-60 cells": {"test_system": "HL-60 cells", "test": "PGJ synthesis in HL-60 cells (ELISA)", "assay_type": "cell-based", "conditions": "TNFα 10 nM, with CB2 or CB1 antagonist, N=4", "method": "The CB2 antagonist SR144528 reduced ultrapure AJA-induced PGJ synthesis in HL60 immune system cells at low concentrations (squares). […] DMSO control (open circles). Treatments of cells was carried out in 48 well plates with 20,000 cells/500 μl RPMI/FCS media/well. Cells were incubated for 20 hrs at 37° C. and 5% CO2. Media was changed to 500 μl of serum free RPMI and TNFα (10 nM) added. […] N=4."}, "hCB2 receptor [2]": {"biological_target": "T1, hCB2 receptor (Homo sapiens, UniProt P34972)", "T1 sequence (P34972 whole entry)": "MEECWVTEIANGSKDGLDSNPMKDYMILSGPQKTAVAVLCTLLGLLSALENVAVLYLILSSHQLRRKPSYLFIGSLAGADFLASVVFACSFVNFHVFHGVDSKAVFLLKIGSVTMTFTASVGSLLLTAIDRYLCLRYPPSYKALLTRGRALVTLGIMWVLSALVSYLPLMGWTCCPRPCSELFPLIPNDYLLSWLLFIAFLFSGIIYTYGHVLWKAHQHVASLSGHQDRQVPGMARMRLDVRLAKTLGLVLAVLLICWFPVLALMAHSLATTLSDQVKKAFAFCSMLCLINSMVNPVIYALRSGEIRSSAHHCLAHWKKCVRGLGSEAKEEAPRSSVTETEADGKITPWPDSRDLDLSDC", "from_the_text": "When the CB1 or CB2 receptor is activated by an agonist, the affinity of the G protein alpha subunit increases with respect to GTP vs. GDP. As a consequence, GDP is displaced from the G protein and GTP or GTPγS binds. If a radioactive label, such as [^35S], is attached to the GTPγS molecule, then the formation of the G protein/[^35S]GTPγS complex can be directly measured using liquid scintillation spectrophotometry.\nThe CB1 and CB2 receptor assays involve membrane preparations purchased from Perkin Elmer (Waltham, Mass.) isolated from a HEK-293 expression system. G-protein coupled signal transduction (GTP-γ-[35S]) assays of test compounds were conducted in an incubation mixture consisting of a test compound (250 nM-1 mM), GDP (20 μM), GTP-γ-[35S] (100 pM), and the hCB1 and hCB2 membrane preparations (0.4 pM) in a total volume of 0.4 mL of assay buffer (50 mM TRIS-HCl, pH 7.4, 1 mM EDTA, 100 mM NaCl, 5 mM MgCl2, 0.5% (w/v) BSA). Nonspecific binding was determined in the presence of 100 μM unlabeled GTP-γ-S, and basal binding was determined in the absence of drug. Duplicate samples were incubated for 1 h at 30° C., and the bound complex was filtered from the reaction mixture as described previously and counted in a liquid scintillation counter. Specific binding was calculated by subtracting nonspecific binding from total binding and dividing by the total basal binding minus nonspecific binding. Data were plotted and analyzed with GraphPad Prism (GraphPad Software, Inc., San Diego, Calif.)."}, "CB1 receptor": {"biological_target": "CB1 receptor (Homo sapiens, UniProt P21554)", "sequence (P21554 whole entry)": "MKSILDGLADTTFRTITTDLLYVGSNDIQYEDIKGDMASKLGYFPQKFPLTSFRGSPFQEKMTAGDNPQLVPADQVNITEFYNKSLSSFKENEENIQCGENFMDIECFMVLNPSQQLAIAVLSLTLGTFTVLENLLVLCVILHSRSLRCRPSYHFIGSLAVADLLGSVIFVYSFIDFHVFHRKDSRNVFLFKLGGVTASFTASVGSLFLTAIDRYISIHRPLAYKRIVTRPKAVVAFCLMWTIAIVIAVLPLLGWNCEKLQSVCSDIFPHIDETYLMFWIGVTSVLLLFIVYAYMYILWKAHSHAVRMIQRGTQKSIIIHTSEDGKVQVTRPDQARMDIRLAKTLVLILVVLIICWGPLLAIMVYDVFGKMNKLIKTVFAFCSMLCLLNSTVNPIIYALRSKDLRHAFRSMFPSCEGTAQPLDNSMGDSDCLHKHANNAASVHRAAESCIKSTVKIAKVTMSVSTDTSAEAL", "test": "CB receptor radioligand binding assay, human CB1", "parameters": "expressed in transfected cells; host or cells: HEK-293T", "method": "(§1) Membrane preparation—HEK-293T cells were cultured according to ATCC (Manassas, Va.) guidelines and transfected with human CB1 cDNA (Genbank X54937) or CB2 cDNA (Genbank X74328), operably linked to the SV40 promoter, using Polyfect (Qiagen, Valencia, Calif.) or Fugene (Roche, Nutley, N.J.) according to manufacturer's instructions. 48 h after transfection, cells were harvested in ice cold membrane buffer (20 mM HEPES, 6 mM MgCl2, 1 mM EDTA, pH 7.2) using a cell scraper. Cells were transferred to a nitrogen cavitation chamber and a pressure of […] was applied for 30 min. The pressure was released and the cell debris was collected and centrifuged at 1000 g at 4° C. for 10 min. The supernatant was collected and the spin was repeated until the supernatant was free of precipitate. […] The membrane concentration was determined using a BioRad (Hercules, Calif.) protein assay dye reagent according to manufacturer's instructions. […]\n(§2) Membranes were incubated for 2 hr at room temperature, then filtered onto a presoaked (with 0.1% polyethylenimine for 1 to 2 hr) 96 well GF/B filterplate (Packard Bioscience, Shelton, Conn.) and washed with […] ice cold wash buffer (25 mM HEPES, 1 mM CaCl2, 5 mM MgCl2, 0.25M NaCl) using a Filtermate 196 Harvester (Packard Instruments, Downers Grove, Ill.). […] Plates were counted on a Topcount NXT (Packard, Shelton, Conn.). […]"}, "hCB2 receptor [3]": {"biological_target": "T1, hCB2 receptor", "test": "CB receptor radioligand binding assay, human CB2", "parameters": "expressed in transfected cells; host or cells: HEK-293T", "method": "as §1, §2"}},
  "data": [
    {"compound": "CCCCCCC(C)(C)c1cc(O)c2c(c1)OC(C)(C)[C@@H]1CC=C(C(=O)O)C[C@@H]21", "note": "[JBT-101, (6aR,10aR)-3-(1′,1′-dimethylheptyl)-Δ8-tetrahydro-cannabinol-9-carboxylic acid]", "values": [
      {"measurement": "inhibition of paw volume / inflammation", "setting": "[1]", "value": "effective at doses well below the doses in which CB1 activity is observed"},
      {"measurement": "inhibition of paw volume / inflammation", "setting": "[1]; listed as ultrapure AJA", "value": "effective at all doses tested"},
      {"measurement": "stimulation of PGJ in HL-60 cells", "setting": "HL-60 cells", "value": "CB2 specificity"},
      {"measurement": "potency in the GTP-gamma-S assay better in the CB2 assay than in the CB1 assay", "setting": "hCB2 receptor [2]; FIG. 13", "value": "~10", "unit": "×"},
      {"measurement": "difference in potency for activation of CB2 versus CB1 receptors", "setting": "hCB2 receptor [2]; GTP-γ-35S EC50 CB1 vs CB2", "value": 9, "unit": "fold"},
      {"measurement": "Ki", "setting": "CB1 receptor", "value": "628 ± 6", "unit": "nM"},
      {"measurement": "Ki", "setting": "hCB2 receptor [3]", "value": "51 ± 11", "unit": "nM"}
    ]}
  ]
}
